The values that follow come from ChEMBL document CHEMBL4385617 (Bioorg Med Chem Lett, 2019).

A short description of experiment [1]: Inhibition of recombinant bacterial KPC-2 expressed in Escherichia coli assessed as reduction in breakdown of cephalosporin FC-5 by fluorescence method. More on the design: species or system Bacteria.
A short description of experiment [2]: Inhibition of recombinant bacterial IMP-1 expressed in Escherichia coli assessed as reduction in breakdown of cephalosporin FC-5 by fluorescence method. Set-up: species or system Bacteria.
Experiment [3] is described as follows: Inhibition of recombinant bacterial NDM-1 expressed in Escherichia coli assessed as reduction in breakdown of cephalosporin FC-5 by fluorescence method. Set-up: species or system Bacteria.
Experiment [4] can be described thus: Inhibition of recombinant bacterial VIM-1 expressed in Escherichia coli assessed as reduction in breakdown of cephalosporin FC-5 by fluorescence method. More on the design: species or system Bacteria.
Experiment [5] is described as follows: Inhibition of recombinant bacterial CphA expressed in Escherichia coli assessed as reduction in hydrolysis of meropenem by UV spectrophotometeric analysis. Set-up: species or system Bacteria.
Experiment [6] in a line: Inhibition of recombinant Escherichia coli OXA-48 assessed as reduction in breakdown of cephalosporin FC-5 in presence of 100 mM NaHCO3 by fluorescence method.
Experiment [7] in a line: Inhibition of recombinant Stenotrophomonas maltophilia K279a L1 expressed in Escherichia coli using FC-5 as substrate by fluorescence method.
Experiment [8] can be described thus: Inhibition of recombinant bacterial OXA-10 expressed in Escherichia coli assessed as reduction in breakdown of cephalosporin FC-5 by fluorescence method. Set-up: species or system Bacteria.
Experiment [9] is described as follows: Inhibition of recombinant Escherichia coli OXA-10 assessed as reduction in breakdown of cephalosporin FC-5 in presence of 100 mM NaHCO3 by fluorescence method.
The test system of a further experiment is Bacteria. Put plainly: Inhibition of bacterial expressed in Escherichia coli OXA-10 assessed as reduction in breakdown of cephalosporin FC-5 at 400 uM by fluorescence method.
In experiment [10] the test system is Escherichia coli. Nature of the experiment: Inhibition of NDM1 in Escherichia coli S117 clinical isolate assessed as potentiation of meropenem-induced antibacterial activity by measuring meropenem MIC at 8 ug/ml by broth microdilution method (Rvb > 64 ug/ml). In general terms: Dilution methods test growth across graded concentrations, often in twofold steps.

Experiment [11] has as its system Escherichia coli. Put plainly: Inhibition of NDM1 in Escherichia coli IR57 clinical isolate assessed as potentiation of meropenem-induced antibacterial activity by measuring meropenem MIC at 8 ug/ml by broth microdilution method (Rvb > 64 ug/ml).
In experiment [12] the target is Metallo-beta-lactamase type 2 (Klebsiella pneumoniae) (UniProt C7C422). Nature of the experiment: Inhibition of NDM1 in Klebsiella pneumoniae B64 clinical isolate assessed as potentiation of meropenem-induced antibacterial activity by measuring meropenem MIC at 8 ug/ml by broth microdilution method (Rvb > 64 ug/ml).
For experiment [13] the target is unchanged. Put plainly: Inhibition of NDM1 in Klebsiella pneumoniae B68-1 clinical isolate assessed as potentiation of meropenem-induced antibacterial activity by measuring meropenem MIC at 8 ug/ml by broth microdilution method (Rvb > 64 ug/ml).
Experiment [14] shares this target. Nature of the experiment: Inhibition of NDM1 in Klebsiella pneumoniae IR43 clinical isolate assessed as potentiation of meropenem-induced antibacterial activity by measuring meropenem MIC at 8 ug/ml by broth microdilution method (Rvb > 64 ug/ml).
Experiment [15] has as its system Escherichia coli. Nature of the experiment: Inhibition of NDM1 in Escherichia coli 91N clinical isolate assessed as potentiation of meropenem-induced antibacterial activity by measuring meropenem MIC at 8 ug/ml by broth microdilution method (Rvb > 64 ug/ml).

What is called IC50 is the concentration that gives 50% inhibition. In general, inhibition refers to the drop in the measured response relative to a control, in per cent.

Sequence of Metallo-beta-lactamase type 2 (Klebsiella pneumoniae) (C7C422 whole entry): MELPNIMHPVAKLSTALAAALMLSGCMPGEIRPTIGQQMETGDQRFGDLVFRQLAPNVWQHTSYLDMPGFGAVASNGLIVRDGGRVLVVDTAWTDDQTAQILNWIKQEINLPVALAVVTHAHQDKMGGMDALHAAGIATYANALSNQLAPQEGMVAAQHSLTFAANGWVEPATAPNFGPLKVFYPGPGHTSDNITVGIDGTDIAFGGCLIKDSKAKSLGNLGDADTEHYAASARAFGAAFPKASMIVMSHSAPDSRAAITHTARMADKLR

Consider `NCc1ccc(C(=O)N[C@H]2Cc3cccc(C(=O)O)c3OB2O)cc1`, for which the IC50 in experiment [1] was 30 nM; in experiment [2] it was 1000 nM; in experiment [3], 29 nM; in experiment [4], 85 nM; in [5], above 100 µM; in experiment [6], 2600 nM. Further, the IC50 entry in experiment [7] is recorded as “Not Active”.

For the compound `O=C(O)C[C@@H]1CC[C@H](NC(=O)Cc2cccs2)B(O)O1` [VABORBACTAM], the IC50 in experiment [8] and in experiment [9] was above 400 µM each time. The inhibition in the experiment with Bacteria was below 50%. Also, the MIC (in the experiment on Escherichia coli [10]; in the experiment on Escherichia coli [11]; in [12]; in experiment [13]; in experiment [14]; in the experiment on Escherichia coli [15]) was above 64 µg/mL throughout.
